Strand notation (5' to 3'): a small letter for the sugar, then the base; units joined by * are phosphorothioate-linked, units joined directly phosphodiester-linked; [ ] holds rarer units or linkages, { } end groups; capitals alone tell only the bases. e = 2'-O-(2-methoxyethyl) (MOE); k = constrained ethyl (cEt); [5mC] = 5-methylcytosine; d = 2'-deoxy (DNA)
Tested on: human PKK mRNA
Experiment: Antisense inhibition of human PKK mRNA in HepaRG cells, 1,000 nM, MOE/deoxy/cEt oligonucleotides (Example 3)
Format: cell-based
Conditions: HepaRG cells, electroporation with 1,000 nM antisense oligonucleotide, PKK mRNA by RT-PCR (RTS3454), relative to untreated control cells
Experimental: Additional antisense oligonucleotides were designed targeting a PKK nucleic acid and were tested for their effects on PKK mRNA in vitro.
The chimeric antisense oligonucleotides in the tables below were designed as deoxy, MOE and cEt gapmers. The gapmers are 16 nucleosides in length wherein the nucleoside have either a MOE sugar modification, a cEt sugar modification, or a deoxy modification. The ‘Chemistry’ column describes the sugar modifications of each oligonucleotide. ‘k’ indicates an cEt sugar modification; the number indicates the number of deoxynucleosides; otherwise, indicates a deoxynucleoside; and ‘e’ indicates a 2′-O-methoxyethyl modification. The internucleoside linkages throughout each gapmer are phosphorothioate linkages. All cytosine residues throughout each oligonucleotide are 5-methylcytosines. “Start site” indicates the 5′-most nucleoside to which the gapmer is targeted in the human gene sequence. “Stop site” indicates the 3′-most nucleoside to which the gapmer is targeted in the human gene sequence.
Cultured HepaRG™ cells at a density of 20,000 cells per well were transfected using electroporation with 1,000 nM antisense oligonucleotide. After a treatment period of approximately 24 hours, RNA was isolated from the cells and PKK mRNA levels were measured by quantitative real-time PCR. Human primer probe set RTS3454 was used to measure mRNA levels. ISIS 531231 was also included in this assay. PKK mRNA levels were adjusted according to total RNA content, as measured by RIBOGREEN®. The antisense oligonucleotides were tested in a series of experiments that had similar culture conditions. Results are presented as percent inhibition of PKK, relative to untreated control cells.

[1] = Table 21 experiment, approx. 24 hours
[2] = Table 20, approximately 24 hours
[3] = Table 22 experiment, approx. 24 hours

Row | Substance | % inhibition [1] | % inhibition [2] | % inhibition [3]
1 | 547826 (eT*eT*k[5mC]*dG*dA*dT*dG*dT*dA*d[5mC]*dT*dT*dT*kT*kG*eG; antisense) [compound 547826] | 31% | – | –
2 | 547827 (eG*eT*kT*d[5mC]*dG*dA*dT*dG*dT*dA*d[5mC]*dT*dT*kT*kT*eG; antisense) [compound 547827] | 47% | – | –
3 | 547828 (e[5mC]*e[5mC]*kT*dG*dT*dT*d[5mC]*dG*dA*dT*dG*dT*dA*k[5mC]*kT*eT; antisense) [compound 547828] | 63% | – | –
4 | 547829 (eA*e[5mC]*k[5mC]*dT*dG*dT*dT*d[5mC]*dG*dA*dT*dG*dT*kA*k[5mC]*eT; antisense) [compound 547829] | 59% | – | –
5 | 547830 (eG*e[5mC]*kA*d[5mC]*d[5mC]*dT*dG*dT*dT*d[5mC]*dG*dA*dT*kG*kT*eA; antisense) [compound 547830] | 74% | – | –
6 | 547831 (e[5mC]*eT*kG*d[5mC]*dA*d[5mC]*d[5mC]*dT*dG*dT*dT*d[5mC]*dG*kA*kT*eG; antisense) [compound 547831] | 49% | – | –
7 | 547832 (eA*e[5mC]*kT*dG*d[5mC]*dA*d[5mC]*d[5mC]*dT*dG*dT*dT*d[5mC]*kG*kA*eT; antisense) [compound 547832] | 59% | – | –
8 | 547833 (eA*eA*k[5mC]*dT*dG*d[5mC]*dA*d[5mC]*d[5mC]*dT*dG*dT*dT*k[5mC]*kG*eA; antisense) [compound 547833] | 40% | – | –
9 | 547834 (eA*eA*kA*d[5mC]*dT*dG*d[5mC]*dA*d[5mC]*d[5mC]*dT*dG*dT*kT*k[5mC]*eG; antisense) [compound 547834] | 63% | – | –
10 | 547836 (eT*e[5mC]*k[5mC]*dA*dG*dA*dA*dA*d[5mC]*dT*dG*d[5mC]*dA*k[5mC]*k[5mC]*eT; antisense) [compound 547836] | 50% | – | –
11 | 547837 (eT*eG*kT*d[5mC]*d[5mC]*dA*dG*dA*dA*dA*d[5mC]*dT*dG*k[5mC]*kA*e[5mC]; antisense) [compound 547837] | 51% | – | –
12 | 547838 (e[5mC]*eT*kT*d[5mC]*dA*dA*dG*dG*dA*dA*dT*dG*dT*k[5mC]*k[5mC]*eA; antisense) [compound 547838] | 45% | – | –
13 | 547839 (eG*e[5mC]*kT*dT*d[5mC]*dA*dA*dG*dG*dA*dA*dT*dG*kT*k[5mC]*e[5mC]; antisense) [compound 547839] | 35% | – | –
14 | 547840 (antisense eT*eT*kG*d[5mC]*dT*dT*d[5mC]*dA*dA*dG*dG*dA*dA*kT*kG*eT) [compound 547840] | 36% | – | –
15 | 547841 (antisense e[5mC]*eA*k[5mC]*dA*dT*dT*dG*d[5mC]*dT*dT*d[5mC]*dA*dA*kG*kG*eA) [compound 547841] | 42% | – | –
16 | 547842 (antisense eG*eA*kT*dG*dA*d[5mC]*d[5mC]*dA*d[5mC]*dA*dT*dT*dG*k[5mC]*kT*eT) [compound 547842] | 10% | – | –
17 | 547844 (antisense eG*e[5mC]*kA*d[5mC]*dT*dT*dA*dT*dT*dT*dG*dA*dT*kG*kA*e[5mC]) [compound 547844] | – | 13% | 76%
18 | 547845 (antisense e[5mC]*eG*kA*dT*dG*dG*d[5mC]*dA*dA*dG*d[5mC]*dA*d[5mC]*kT*kT*eA) [compound 547845] | – | 0% | 64%
19 | 547846 (antisense eT*e[5mC]*kG*dA*dT*dG*dG*d[5mC]*dA*dA*dG*d[5mC]*dA*k[5mC]*kT*eT) [compound 547846] | – | 0% | 42%
20 | 547847 (antisense e[5mC]*eT*k[5mC]*dG*dA*dT*dG*dG*d[5mC]*dA*dA*dG*d[5mC]*kA*k[5mC]*eT) [compound 547847] | – | 46% | 72%
21 | 547848 (antisense eA*eT*kG*dT*d[5mC]*dT*d[5mC]*dG*dA*dT*dG*dG*d[5mC]*kA*kA*eG) [compound 547848] | – | 93% | 79%
22 | 547850 (antisense eA*eA*kA*dT*dG*dT*d[5mC]*dT*d[5mC]*dG*dA*dT*dG*kG*k[5mC]*eA) [compound 547850] | – | 51% | 80%

Row | Substance | % inhibition [1] | % inhibition [2] | % inhibition [3]
23 | 547852 (antisense eA*eT*kA*dA*dA*dT*dG*dT*d[5mC]*dT*d[5mC]*dG*dA*kT*kG*eG) [compound 547852] | – | 67% | 66%
24 | 547853 (antisense eT*eA*kT*dA*dA*dA*dT*dG*dT*d[5mC]*dT*d[5mC]*dG*kA*kT*eG) [compound 547853] | – | 0% | 30%
25 | 547854 (antisense eA*eT*k[5mC]*dA*dA*d[5mC]*dT*d[5mC]*d[5mC]*dT*dT*dT*dA*kT*kA*eA) [compound 547854] | – | 10% | 9%
26 | 547855 (antisense eT*eA*kT*d[5mC]*dA*dA*d[5mC]*dT*d[5mC]*d[5mC]*dT*dT*dT*kA*kT*eA) [compound 547855] | – | 59% | 38%
27 | 547856 (antisense e[5mC]*eA*kT*dA*dT*d[5mC]*dA*dA*d[5mC]*dT*d[5mC]*d[5mC]*dT*kT*kT*eA) [compound 547856] | – | 93% | 51%
28 | 547858 (antisense e[5mC]*eT*k[5mC]*dT*d[5mC]*dA*dT*dA*dT*d[5mC]*dA*dA*d[5mC]*kT*k[5mC]*e[5mC]) [compound 547858] | – | 82% | 76%
29 | 547860 (antisense eT*e[5mC]*k[5mC]*dT*d[5mC]*dT*d[5mC]*dA*dT*dA*dT*d[5mC]*dA*kA*k[5mC]*eT) [compound 547860] | – | 71% | 70%
30 | 547863 (antisense eT*eG*kA*d[5mC]*dT*d[5mC]*d[5mC]*dT*d[5mC]*dT*d[5mC]*dA*dT*kA*kT*e[5mC]) [compound 547863] | – | 73% | 77%
31 | 547864 (antisense eT*eT*kG*dA*d[5mC]*dT*d[5mC]*d[5mC]*dT*d[5mC]*dT*d[5mC]*dA*kT*kA*eT) [compound 547864] | – | 53% | 73%
32 | 547865 (antisense eA*eA*kA*dA*dT*dT*dG*dA*d[5mC]*dT*d[5mC]*d[5mC]*dT*k[5mC]*kT*e[5mC]) [compound 547865] | – | 3% | 61%
33 | 547866 (antisense eT*eT*kA*dA*dA*dA*dT*dT*dG*dA*d[5mC]*dT*d[5mC]*k[5mC]*kT*e[5mC]) [compound 547866] | – | 46% | 40%
34 | 547867 (antisense e[5mC]*e[5mC]*kT*dT*dA*dG*dA*d[5mC]*dA*d[5mC]*dA*dT*dT*kA*kA*eA) [compound 547867] | – | 34% | 53%
35 | 547868 (antisense eA*e[5mC]*k[5mC]*dT*dT*dA*dG*dA*d[5mC]*dA*d[5mC]*dA*dT*kT*kA*eA) [compound 547868] | – | 47% | 71%
36 | 547869 (antisense eA*eA*k[5mC]*d[5mC]*dT*dT*dA*dG*dA*d[5mC]*dA*d[5mC]*dA*kT*kT*eA) [compound 547869] | – | 45% | 77%
37 | 547871 (antisense eG*e[5mC]*kT*dA*dA*d[5mC]*d[5mC]*dT*dT*dA*dG*dA*d[5mC]*kA*k[5mC]*eA) [compound 547871] | – | 96% | 77%
38 | 547872 (antisense eT*eG*k[5mC]*dT*dA*dA*d[5mC]*d[5mC]*dT*dT*dA*dG*dA*k[5mC]*kA*e[5mC]) [compound 547872] | – | 85% | 73%
39 | 547873 (antisense e[5mC]*eT*kG*d[5mC]*dT*dA*dA*d[5mC]*d[5mC]*dT*dT*dA*dG*kA*k[5mC]*eA) [compound 547873] | – | 77% | 82%
40 | 547874 (antisense eA*e[5mC]*kT*dG*d[5mC]*dT*dA*dA*d[5mC]*d[5mC]*dT*dT*dA*kG*kA*e[5mC]) [compound 547874] | – | 70% | 60%
41 | 547875 (antisense e[5mC]*eA*k[5mC]*dT*dG*d[5mC]*dT*dA*dA*d[5mC]*d[5mC]*dT*dT*kA*kG*eA) [compound 547875] | – | 73% | 57%
42 | 547876 (antisense eA*e[5mC]*kA*d[5mC]*dT*dG*d[5mC]*dT*dA*dA*d[5mC]*d[5mC]*dT*kT*kA*eG) [compound 547876] | – | 78% | 59%
43 | 547878 (antisense e[5mC]*eA*kA*d[5mC]*dA*d[5mC]*dT*dG*d[5mC]*dT*dA*dA*d[5mC]*k[5mC]*kT*eT) [compound 547878] | – | – | 62%
44 | 547879 (antisense eT*e[5mC]*kA*dA*d[5mC]*dA*d[5mC]*dT*dG*d[5mC]*dT*dA*dA*k[5mC]*k[5mC]*eT) [compound 547879] | – | 69% | 65%

Source: US11840686B2, “Modulation of prekallikrein (PKK) expression” (Ionis Pharmaceuticals, Inc., priority 2013, dated 2023)
